Assay results published in patent publication US9493455B2, “Azaindole derivatives as inhibitors of protein kinases” (ORIBASE PHARMA, priority 2012, dated 2016).

What was measured:
ABL2 = molecular target: T1, ABL2 (Homo sapiens, UniProt P42684); assay: In vitro kinase assay (Z′-LYTE); format: biochemical; conditions: read-out: percent inhibition of the kinase compared to the control
T1 construct: purchased Invitrogen
Procedure, shortened: (§1)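 Peptide/kinase mix combined with ATP (apparent Km) in 50 mM HEPES pH 7.5, 10 mM MgCl2, 1 mM EGTA, 0.01% BRIJ-35; compound present at 100 nM, except 10 μM for ABL T315I; DMSO 1% final. Protease development, then FRET emission ratio.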

CSK = molecular target: T2, CSK (Homo sapiens, UniProt P41240); assay: In vitro kinase assay (Z′-LYTE); format: biochemical; conditions: read-out: percent inhibition of the kinase compared to the control
T2 construct: purchased Invitrogen
Procedure, shortened: as §1

EGFR (ErbB1) = molecular target: T3, EGFR (ErbB1) (Homo sapiens, UniProt P00533); assay: In vitro kinase assay (Z′-LYTE); format: biochemical; conditions: read-out: % of inhibition of the kinase compared to the control
T3 construct: purchased Invitrogen
Procedure, shortened: as §1

EPHA1 = molecular target: T4, EPHA1 (Homo sapiens, UniProt P21709); assay: In vitro kinase assay (Z′-LYTE); format: biochemical; conditions: read-out: percent inhibition of the kinase compared to the control
T4 construct: purchased Invitrogen
T4 sequence (P21709 26-976): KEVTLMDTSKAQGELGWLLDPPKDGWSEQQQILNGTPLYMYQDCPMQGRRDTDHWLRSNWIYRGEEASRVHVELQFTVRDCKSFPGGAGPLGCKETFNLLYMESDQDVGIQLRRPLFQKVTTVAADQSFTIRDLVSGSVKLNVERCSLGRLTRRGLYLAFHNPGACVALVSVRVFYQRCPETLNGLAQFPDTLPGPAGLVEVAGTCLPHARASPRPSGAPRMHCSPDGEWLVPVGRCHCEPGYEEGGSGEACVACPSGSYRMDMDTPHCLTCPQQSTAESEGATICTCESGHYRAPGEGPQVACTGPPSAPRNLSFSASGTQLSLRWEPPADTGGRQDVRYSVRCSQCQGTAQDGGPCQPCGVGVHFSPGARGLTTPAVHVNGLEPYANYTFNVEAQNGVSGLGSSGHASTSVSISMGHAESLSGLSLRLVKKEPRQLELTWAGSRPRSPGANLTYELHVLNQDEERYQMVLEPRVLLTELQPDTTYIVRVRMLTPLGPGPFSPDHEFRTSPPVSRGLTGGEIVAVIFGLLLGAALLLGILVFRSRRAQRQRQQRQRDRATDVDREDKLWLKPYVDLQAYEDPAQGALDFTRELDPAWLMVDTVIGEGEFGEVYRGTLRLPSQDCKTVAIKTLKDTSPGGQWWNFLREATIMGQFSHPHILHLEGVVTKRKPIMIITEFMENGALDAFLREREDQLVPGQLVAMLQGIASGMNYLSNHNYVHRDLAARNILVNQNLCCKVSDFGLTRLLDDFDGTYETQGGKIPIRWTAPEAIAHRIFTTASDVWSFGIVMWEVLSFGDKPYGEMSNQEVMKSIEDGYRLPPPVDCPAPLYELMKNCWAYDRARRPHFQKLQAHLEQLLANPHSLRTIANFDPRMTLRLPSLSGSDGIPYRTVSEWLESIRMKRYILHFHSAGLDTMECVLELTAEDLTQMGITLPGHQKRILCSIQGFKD
Procedure, shortened: as §1

EPHA2 = molecular target: T5, EPHA2 (Homo sapiens, UniProt P29317); assay: In vitro kinase assay (Z′-LYTE); format: biochemical; conditions: read-out: percent inhibition of the kinase compared to the control
T5 construct: purchased Invitrogen
Procedure, shortened: as §1

EPHA4 = molecular target: T6, EPHA4 (Homo sapiens, UniProt P54764); assay: In vitro kinase assay (Z′-LYTE); format: biochemical; conditions: read-out: percent inhibition of the kinase compared to the control
T6 construct: purchased Invitrogen
Procedure, shortened: as §1

EPHB2 = molecular target: T7, EPHB2 (Homo sapiens, UniProt P29323); assay: In vitro kinase assay (Z′-LYTE); format: biochemical; conditions: read-out: percent inhibition of the kinase compared to the control
T7 construct: purchased Invitrogen
Procedure, shortened: as §1

EPHB4 = molecular target: T8, EPHB4 (Homo sapiens, UniProt P54760); assay: In vitro kinase assay (Z′-LYTE); format: biochemical; conditions: read-out: percent inhibition of the kinase compared to the control
T8 construct: purchased Invitrogen
T8 sequence (P54760 16-987): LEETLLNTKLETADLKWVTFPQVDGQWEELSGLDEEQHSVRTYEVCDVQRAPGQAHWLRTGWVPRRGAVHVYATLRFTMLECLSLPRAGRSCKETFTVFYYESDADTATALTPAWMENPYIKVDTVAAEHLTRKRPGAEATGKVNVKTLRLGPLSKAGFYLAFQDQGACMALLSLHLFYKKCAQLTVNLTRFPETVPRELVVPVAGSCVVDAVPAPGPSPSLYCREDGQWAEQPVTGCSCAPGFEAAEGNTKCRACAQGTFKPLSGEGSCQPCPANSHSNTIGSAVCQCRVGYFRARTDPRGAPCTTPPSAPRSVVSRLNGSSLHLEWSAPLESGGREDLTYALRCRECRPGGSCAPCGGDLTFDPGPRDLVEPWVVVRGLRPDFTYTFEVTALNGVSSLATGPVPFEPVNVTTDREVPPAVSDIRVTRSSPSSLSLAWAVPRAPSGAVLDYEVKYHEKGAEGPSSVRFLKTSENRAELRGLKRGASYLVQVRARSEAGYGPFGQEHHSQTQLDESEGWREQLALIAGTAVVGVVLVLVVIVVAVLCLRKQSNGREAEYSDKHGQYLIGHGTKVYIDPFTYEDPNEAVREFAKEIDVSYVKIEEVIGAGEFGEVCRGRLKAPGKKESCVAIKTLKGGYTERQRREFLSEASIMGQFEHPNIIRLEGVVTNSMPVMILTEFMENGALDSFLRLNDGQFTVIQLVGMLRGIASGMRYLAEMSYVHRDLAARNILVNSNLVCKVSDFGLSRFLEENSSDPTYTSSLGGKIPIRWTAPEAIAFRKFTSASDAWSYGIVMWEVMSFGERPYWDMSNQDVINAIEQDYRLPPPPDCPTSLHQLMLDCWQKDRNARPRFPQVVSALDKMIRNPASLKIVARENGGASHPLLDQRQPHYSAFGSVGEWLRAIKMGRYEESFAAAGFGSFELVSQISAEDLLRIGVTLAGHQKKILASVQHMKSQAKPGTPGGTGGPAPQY
Procedure, shortened: as §1

ERBB4 = molecular target: T9, ERBB4 (Homo sapiens, UniProt Q15303); assay: In vitro kinase assay (Z′-LYTE); format: biochemical; conditions: read-out: percent inhibition of the kinase compared to the control
T9 construct: purchased Invitrogen
Procedure, shortened: as §1

FES = molecular target: T10, FES (Homo sapiens, UniProt P07332); assay: In vitro kinase assay (Z′-LYTE); format: biochemical; conditions: read-out: percent inhibition of the kinase compared to the control
T10 construct: purchased Invitrogen
Procedure, shortened: as §1

FGFR2 = molecular target: T11, FGFR2 (Homo sapiens, UniProt P21802); assay: In vitro kinase assay (Z′-LYTE); format: biochemical; conditions: read-out: % of inhibition of the kinase compared to the control
T11 construct: purchased Invitrogen
Procedure, shortened: as §1

FRK = molecular target: T12, FRK (Homo sapiens, UniProt P42685); assay: In vitro kinase assay (Z′-LYTE); format: biochemical; conditions: read-out: percent inhibition of the kinase compared to the control
T12 construct: purchased Invitrogen
T12 sequence (P42685 whole entry): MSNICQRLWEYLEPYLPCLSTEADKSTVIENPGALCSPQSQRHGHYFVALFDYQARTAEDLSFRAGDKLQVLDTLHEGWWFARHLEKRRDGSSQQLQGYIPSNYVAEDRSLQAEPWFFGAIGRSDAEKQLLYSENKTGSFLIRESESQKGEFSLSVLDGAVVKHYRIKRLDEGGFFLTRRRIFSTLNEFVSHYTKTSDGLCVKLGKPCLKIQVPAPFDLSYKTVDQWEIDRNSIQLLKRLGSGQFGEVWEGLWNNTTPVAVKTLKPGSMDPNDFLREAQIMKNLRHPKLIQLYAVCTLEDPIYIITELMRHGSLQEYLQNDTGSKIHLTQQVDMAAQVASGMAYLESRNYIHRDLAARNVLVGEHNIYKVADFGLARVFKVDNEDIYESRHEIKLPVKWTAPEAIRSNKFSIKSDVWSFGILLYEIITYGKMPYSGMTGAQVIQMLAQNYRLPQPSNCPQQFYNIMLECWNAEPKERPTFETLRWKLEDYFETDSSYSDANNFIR
Procedure, shortened: as §1

KDR (VEGFR2) = molecular target: T13, KDR (VEGFR2) (Homo sapiens, UniProt P35968); assay: In vitro kinase assay (Z′-LYTE); format: biochemical; conditions: read-out: % of inhibition of the kinase compared to the control
T13 construct: purchased Invitrogen
T13 sequence (P35968 20-1356): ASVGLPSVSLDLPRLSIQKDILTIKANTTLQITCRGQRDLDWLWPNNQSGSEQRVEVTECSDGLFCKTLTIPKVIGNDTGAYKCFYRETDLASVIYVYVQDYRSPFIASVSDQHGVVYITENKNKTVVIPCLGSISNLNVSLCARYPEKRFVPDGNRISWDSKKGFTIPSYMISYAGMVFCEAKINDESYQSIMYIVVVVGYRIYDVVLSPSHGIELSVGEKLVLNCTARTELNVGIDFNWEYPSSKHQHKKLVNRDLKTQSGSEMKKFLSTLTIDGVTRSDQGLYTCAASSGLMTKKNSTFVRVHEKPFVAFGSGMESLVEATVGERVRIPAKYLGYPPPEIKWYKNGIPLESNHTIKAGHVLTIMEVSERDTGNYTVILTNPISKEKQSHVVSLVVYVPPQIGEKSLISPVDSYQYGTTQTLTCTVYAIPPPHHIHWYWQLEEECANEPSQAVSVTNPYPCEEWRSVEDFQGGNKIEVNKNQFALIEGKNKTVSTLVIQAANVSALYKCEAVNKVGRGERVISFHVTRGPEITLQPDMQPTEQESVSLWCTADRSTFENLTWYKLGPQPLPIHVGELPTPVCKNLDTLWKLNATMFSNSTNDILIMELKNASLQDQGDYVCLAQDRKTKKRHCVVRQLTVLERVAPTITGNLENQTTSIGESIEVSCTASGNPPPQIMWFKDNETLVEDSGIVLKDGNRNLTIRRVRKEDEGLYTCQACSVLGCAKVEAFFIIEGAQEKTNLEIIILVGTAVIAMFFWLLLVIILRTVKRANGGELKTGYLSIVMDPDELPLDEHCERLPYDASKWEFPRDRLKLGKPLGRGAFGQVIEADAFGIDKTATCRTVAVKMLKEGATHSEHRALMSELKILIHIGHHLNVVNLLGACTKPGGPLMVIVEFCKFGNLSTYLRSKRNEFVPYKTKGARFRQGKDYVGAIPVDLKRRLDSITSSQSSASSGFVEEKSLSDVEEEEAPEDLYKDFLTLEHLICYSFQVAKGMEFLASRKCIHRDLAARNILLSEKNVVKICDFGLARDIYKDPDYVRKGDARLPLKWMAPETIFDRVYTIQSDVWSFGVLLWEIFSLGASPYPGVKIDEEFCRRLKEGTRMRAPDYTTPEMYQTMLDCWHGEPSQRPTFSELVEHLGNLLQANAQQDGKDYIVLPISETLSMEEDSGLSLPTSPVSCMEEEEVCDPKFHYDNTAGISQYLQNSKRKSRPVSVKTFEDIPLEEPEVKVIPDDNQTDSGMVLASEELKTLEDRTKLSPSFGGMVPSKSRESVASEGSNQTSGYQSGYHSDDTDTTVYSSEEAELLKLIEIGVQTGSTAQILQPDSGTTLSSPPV
Procedure, shortened: as §1

PKC theta = molecular target: T14, PKC theta (Homo sapiens, UniProt Q04759); assay: In vitro kinase assay (Z′-LYTE); format: biochemical; conditions: read-out: percent inhibition of the kinase compared to the control
T14 construct: purchased Invitrogen
Procedure, shortened: as §1

VEGFR1 = molecular target: T15, VEGFR1 (Homo sapiens, UniProt P17948); assay: In vitro kinase assay (Z′-LYTE); format: biochemical; conditions: read-out: % of inhibition of the kinase compared to the control
T15 construct: purchased Invitrogen
Procedure, shortened: as §1

H1975 cells = assay: Xenograft mouse model, human NSCLC with EGFR mutations; format: in vivo, mice
Protocol: (§2) Several xenograft mouse models were prepared: • 1) imatinib-resistant leukemia by subcutaneously implanting Ba/F3 T315I cells (1×10^8 cell/mL in sterile PBS), into the right flank of athymic nude male mice (HSD, 6-7 weeks old). When the tumor volume reached approximately 50 mm^3, mice were assigned randomly to either vehicle alone or OR0512 treatment groups (five mice per group). Mice were treated with either vehicle (DMSO) or OR0512 (40 mg/kg q.d.; per os for 11 consecutive days). • 2) human pancreatic adenocarcinoma model by subcutaneously implanting BxPC-3 cells (1×10^7 cell/mL in sterile PBS), into the right flank of athymic nude male mice (HSD, 6-7 weeks old). […]
(§3) Tumor volumes in mm^3 were determined three times a week with a digital caliper and calculated using the following formula: Tumor Volume (mm^3)=length (mm)×width (mm)×width (mm)×½. Body weight was measured three times a week, and mice were observed daily for monitoring signs of stress to detect possible toxicities. […] Data were analyzed with Prism 5.0b (GraphPad Software) by one-way ANOVA with Bonferroni post hoc. Tumor Growth Inibition (TGI) is calculated as the percent decrease of tumor growth at the end of the study in the OR0512 treatment group in comparison to the vehicle alone treatment group.

HepG2 cells = assay: Xenograft mouse model, human hepatocellular carcinoma; format: in vivo, mice
Protocol: as §2, §3

T1 sequence (P42684 whole entry): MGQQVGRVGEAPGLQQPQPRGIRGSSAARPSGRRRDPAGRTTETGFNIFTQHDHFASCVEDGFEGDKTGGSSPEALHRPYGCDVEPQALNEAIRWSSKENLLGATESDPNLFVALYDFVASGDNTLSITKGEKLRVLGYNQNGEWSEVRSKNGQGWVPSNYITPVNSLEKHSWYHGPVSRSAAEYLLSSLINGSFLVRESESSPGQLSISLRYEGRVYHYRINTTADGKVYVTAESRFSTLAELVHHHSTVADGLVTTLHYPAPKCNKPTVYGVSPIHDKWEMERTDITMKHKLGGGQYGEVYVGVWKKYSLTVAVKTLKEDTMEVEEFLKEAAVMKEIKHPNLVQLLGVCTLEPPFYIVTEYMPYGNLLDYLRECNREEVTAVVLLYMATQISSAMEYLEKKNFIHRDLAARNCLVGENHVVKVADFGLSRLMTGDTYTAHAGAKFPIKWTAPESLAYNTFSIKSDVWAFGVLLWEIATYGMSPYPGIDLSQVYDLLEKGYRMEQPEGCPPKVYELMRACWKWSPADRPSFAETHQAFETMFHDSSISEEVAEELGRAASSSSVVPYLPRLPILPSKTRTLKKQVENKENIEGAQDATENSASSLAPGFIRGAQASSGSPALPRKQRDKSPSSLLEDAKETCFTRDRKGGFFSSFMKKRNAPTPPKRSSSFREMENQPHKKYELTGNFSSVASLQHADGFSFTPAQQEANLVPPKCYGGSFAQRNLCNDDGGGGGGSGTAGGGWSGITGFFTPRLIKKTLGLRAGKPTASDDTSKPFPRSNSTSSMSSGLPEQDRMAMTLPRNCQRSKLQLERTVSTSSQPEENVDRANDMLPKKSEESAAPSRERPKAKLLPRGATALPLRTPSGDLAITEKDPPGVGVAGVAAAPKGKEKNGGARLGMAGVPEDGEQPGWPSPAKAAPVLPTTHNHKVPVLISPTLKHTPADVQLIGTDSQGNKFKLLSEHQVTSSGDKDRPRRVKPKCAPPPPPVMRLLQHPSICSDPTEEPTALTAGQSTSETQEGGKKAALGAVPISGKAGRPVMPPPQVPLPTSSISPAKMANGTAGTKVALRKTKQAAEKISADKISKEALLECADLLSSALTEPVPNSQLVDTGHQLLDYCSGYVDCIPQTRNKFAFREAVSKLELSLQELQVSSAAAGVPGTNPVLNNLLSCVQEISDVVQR

inhibition at 0.1 µM (ABL2): > 50%
inhibition at 0.1 µM (CSK): > 50%
inhibition at 0.1 µM (EGFR (ErbB1)): ≥ 50%
inhibition at 0.1 µM (EPHA1): > 50%
inhibition at 0.1 µM (EPHA2): > 50%
inhibition at 0.1 µM (EPHA4): > 50%
inhibition at 0.1 µM (EPHB2): > 50%
inhibition at 0.1 µM (EPHB4): > 50%
inhibition at 0.1 µM (ERBB4): > 50%
inhibition at 0.1 µM (FES): > 50%
inhibition at 0.1 µM (FGFR2): ≥ 50%
inhibition at 0.1 µM (FRK): > 50%
inhibition at 0.1 µM (KDR (VEGFR2)): ≥ 50%
inhibition at 0.1 µM (PKC theta): > 50%
inhibition at 0.1 µM (VEGFR1): < 50%
Compound: COC(=O)c1cc2cc(NCc3cc(NC(=O)c4ccc(CN5CCN(C)CC5)c(C(F)(F)F)c4)ccc3C)cnc2[nH]1 [OR0512]
Tumor Growth Inhibition - TGI (H1975 cells; H1975 xenograft, mice, 20 mg/kg q.d. per os, 22 days, versus vehicle, **P < 0.05): 73%**
decrease of tumor growth (in words) (H1975 cells; xenografted mice, human NSCLC (mutated form of EGFR) model): significantly induced a decrease of tumor growth
Tumor Growth Inhibition - TGI (HepG2 cells; HepG2 xenograft, mice, 20 mg/kg q.d. per os, 15 days, versus vehicle, **P < 0.05): 69%**
decrease of tumor growth (in words) (HepG2 cells; xenografted mice, human hepatocellular carcinoma model): significantly induced a decrease of tumor growth
